{
  "source": "patent US9375436B2",
  "about": "“Androgen treatment in females” (priority 2004, dated 2016)",
  "format_in_all_cases": "in vivo, human",
  "key": {"[1]": {"tested_on": "women waiting to go into an IVF cycle", "assay": "Spontaneous conceptions in women on DHEA waiting to go into IVF", "experimental": "Additionally, with DHEA treatment, there may be an unexpectedly large number of spontaneous conceptions in women waiting to go into an IVF cycle. DHEA treatment includes administering a dose of between about 50 mg/day and about 100 mg/day, preferably between about 60 mg/day and about 80 mg/day, and in one study about 75 mg/day to a human. Particularly, the DHEA treatment may be administered to a premenopausal person with diminished ovarian function. DHEA may have an effect after about 4 consecutive weeks. However, DHEA has a more significant effect after about 8 weeks or about 2 months of administration, but its effect may continue to increase to about four months, and further may continue past four months of use. Specifically, DHEA treatment has a statistically significant effect after about at least 16 weeks or about at least 4 months of administration.\nThe DHEA treatment may be at least about 2 weeks before spontaneous conception occurs. In the population of women who are waiting to go into IVF, the spontaneous pregnancy rate is a fraction of about 1% per month. However, in the population of women who have been on DHEA treatment, there were 13 spontaneous pregnancies out of 60 women. As such, DHEA treatment increases spontaneous pregnancies in one study at least about 21 fold. […]"}, "[2]": {"tested_on": "DOR patients", "assay": "Pregnancy outcome at various AMH levels under DHEA supplementation", "excerpt": "Another study from our center further supports these conclusions (FIG. 22). FIG. 22 is a graph showing spontaneous pregnancy loss in spontaneous and IVF pregnancies at various AMH levels. The figure depicts at various AMH levels in the left column IVF pregnancies (IVF), as previously reported (26), and in the right column spontaneously conceived pregnancies (SP). Each column represents 100% of all pregnancies established, separated for live births (black section), voluntary termination of pregnancy (TOP; usually for aneuploidy) and spontaneous miscarriages (SAB).\nIn that study (FIG. 22), we investigated live birth rates after IVF at extremely low anti-Müllerian hormone (AMH) levels and were surprised how low miscarriage rates were between non-detectable levels of AMH and 0.4 ng/mL. Losses then increased between AMH 0.41-1.05 ng/mL to over 50 percent, the expected rate in DOR patients, only to fall, once again, to very low levels above AMH 1.05 ng/mL. […]\nAMH<1.05 ng/mL represents more severe DOR. […] Chances of clinical pregnancies, miscarriages, terminations of pregnancy, and viable deliveries were then determined among severe DOR patients, depending on AMH levels (below detection, <0.1 ng/mL, 0.1-0.4 ng/mL, 0.41-0.8 ng/mL, 0.81-1.05 ng/mL) and with milder DOR (>1.06 ng/mL). […]"}, "[3]": {"assay": "Side effects and complications of DHEA supplementation", "experimental": "We maintained in all studies and treatment protocols the oral medication dosage of about 25 mg TID (three times a day for a total of about 75 mg per day), used by our index patient. […] Studies to determine best dosaging of DHEA in the treatment of DOR have so far not been performed.\nOvarian stimulation was identical for study and control groups and comprised microdose agonist flare, followed by maximal dosage gonadotropin stimulation, using about 300-450 IU of FSH and about 150 IU of HMG. Study patients received DHEA continuously until a positive pregnancy test was obtained or until the patient dropped out of treatment. DHEA and DHEAS levels were monitored monthly, and patients were interviewed at each visit about adverse reactions to DHEA supplementation."}},
  "note": "“Also recorded” adds a separate entry of the source.",
  "data": [
    {"smiles": "C[C@]12CC[C@H](O)CC1=CC[C@@H]1[C@@H]2CC[C@]2(C)C(=O)CC[C@@H]12", "note": "[DHEA, Dehydroepiandrosterone]", "values": [
      {"measurement": "increase of spontaneous pregnancies", "setting": "[1]; versus fraction of about 1% per month in women waiting for IVF", "result": "at least 21 fold"},
      {"measurement": "spontaneous pregnancies out of 60 women", "setting": "[1]; women on DHEA treatment", "result": 13},
      {"measurement": "chance of live birth per treatment cycle", "setting": "[2]; DOR patients under DHEA supplementation, up to AMH 1.05 ng/mL", "result": "approximately 5%"},
      {"measurement": "pregnancy chance per IVF cycle", "setting": "[2]; under DHEA supplementation, absence of detectable AMH", "result": "~5", "unit": "%"},
      {"measurement": "side effects", "setting": "[3]; oral DHEA about 25 mg TID", "result": "small and primarily relate to androgen effects; also recorded: mild transient acne on the face, chest or back, oily skin and mild hair loss; also recorded: appears safe and results in only minor side effects; also recorded: limited to oily skin, rarely mild acne vulgaris and mild hair loss"},
      {"measurement": "complications", "setting": "[3]; over 1,000 patients supplemented with DHEA", "result": "not encountered even a single complication of serious clinical significance"}
    ]}
  ]
}
